ChEMBL document CHEMBL1201862, “PubChem BioAssay data set” (2004)
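Protocol summary: plate cells (96-well), add compound at 5 concentrations, incubate 48 h, interpolate endpoints linearly. GI50 marks 50% less growth.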 Activity calls are given as the source filed them. Cut-off read from the data, not from the text of the source: active = GI50 up to about 1.1 µM and inactive = higher.

Experiments:
Test in all cases: growth of human tumour cells (NCI), 48 h
786-0 = tested on: 786-0
A549 = tested on: A549
CAKI-1 = tested on: CAKI-1
CCRF-CEM = tested on: CCRF-CEM
COLO 205 = tested on: COLO 205
DU-145 = tested on: DU-145
EKVX = tested on: EKVX
HCT-116 = tested on: HCT-116
HL-60 = tested on: HL-60
HOP-62 = tested on: HOP-62
HOP-92 = tested on: HOP-92
HT-29 = tested on: HT-29
IGROV-1 = tested on: IGROV-1
K562 = tested on: K562
KM12 = tested on: KM12
LOX IMVI = tested on: LOX IMVI
M14 = tested on: M14
MDA-MB-435 = tested on: MDA-MB-435
MDA-N = tested on: MDA-N
MOLT-4 = tested on: MOLT-4
NCI-H226 = tested on: NCI-H226
OVCAR-3 = tested on: OVCAR-3
OVCAR-4 = tested on: OVCAR-4
OVCAR-5 = tested on: OVCAR-5
OVCAR-8 = tested on: OVCAR-8
RPMI-8226 = tested on: RPMI-8226
RXF 393 = tested on: RXF 393
SF-295 = tested on: SF-295
SF-539 = tested on: SF-539
SK-MEL-28 = tested on: SK-MEL-28
SK-MEL-5 = tested on: SK-MEL-5
SK-OV-3 = tested on: SK-OV-3
SN12C = tested on: SN12C
SNB-19 = tested on: SNB-19
SNB-75 = tested on: SNB-75
SR = tested on: SR
SW-620 = tested on: SW-620
T47D = tested on: T47D
UO-31 = tested on: UO-31
ACHN = tested on: ACHN
Hs-578T = tested on: Hs-578T
MCF7 = tested on: MCF7
MDA-MB-231 = tested on: MDA-MB-231
NCI-H460 = tested on: NCI-H460
NCI-H522 = tested on: NCI-H522
NCI/ADR-RES = tested on: NCI/ADR-RES
PC-3 = tested on: PC-3
SF-268 = tested on: SF-268
SK-MEL-2 = tested on: SK-MEL-2
TK-10 = tested on: TK-10
U-251 = tested on: U-251
UACC-257 = tested on: UACC-257

## O=C(O)CCC(=O)c1ccc(Cl)cc1
786-0
  GI50: > 100 µM (inactive)
A549
  GI50: > 100 µM (inactive)
CAKI-1
  GI50: > 100 µM (inactive)
CCRF-CEM
  GI50: > 100 µM (inactive)
COLO 205
  GI50: > 100 µM (inactive)
DU-145
  GI50: > 100 µM (inactive)
EKVX
  GI50: > 100 µM (inactive)
HCT-116
  GI50: > 100 µM (inactive)
HL-60
  GI50: > 100 µM (inactive)
HOP-62
  GI50: > 100 µM (inactive)
HOP-92
  GI50: > 100 µM (inactive)
HT-29
  GI50: > 100 µM (inactive)
IGROV-1
  GI50: > 100 µM (inactive)
K562
  GI50: > 100 µM (inactive)
KM12
  GI50: > 100 µM (inactive)
LOX IMVI
  GI50: > 100 µM (inactive)
M14
  GI50: > 100 µM (inactive)
MDA-MB-435
  GI50: > 100 µM (inactive)
MDA-N
  GI50: > 100 µM (inactive)
MOLT-4
  GI50: > 100 µM (inactive)
NCI-H226
  GI50: > 100 µM (inactive)
OVCAR-3
  GI50: > 100 µM (inactive)
OVCAR-4
  GI50: > 100 µM (inactive)
OVCAR-5
  GI50: > 100 µM (inactive)
OVCAR-8
  GI50: > 100 µM (inactive)
RPMI-8226
  GI50: > 100 µM (inactive)
RXF 393
  GI50: > 100 µM (inactive)
SF-295
  GI50: > 100 µM (inactive)
SF-539
  GI50: > 100 µM (inactive)
SK-MEL-28
  GI50: > 100 µM (inactive)
SK-MEL-5
  GI50: > 100 µM (inactive)
SK-OV-3
  GI50: > 100 µM (inactive)
SN12C
  GI50: > 100 µM (inactive)
SNB-19
  GI50: > 100 µM (inactive)
SNB-75
  GI50: > 100 µM (inactive)
SR
  GI50: > 100 µM (inactive)
SW-620
  GI50: > 100 µM (inactive)
T47D
  GI50: > 100 µM (inactive)
UO-31
  GI50: > 100 µM (inactive)

## CC1(C)CC(=O)c2c(nc3c(ccc4ccccc43)c2-c2ccc(NC(=O)CCCCCCCCC(=O)Nc3ccc(-c4c5c(nc6c4ccc4ccccc46)CC(C)(C)CC5=O)cc3)cc2)C1
786-0
  GI50: > 100 µM (inactive)
A549
  GI50: > 100 µM (inactive)
ACHN
  GI50: > 100 µM (inactive)
CAKI-1
  GI50: > 100 µM (inactive)
CCRF-CEM
  GI50: > 100 µM (inactive)
COLO 205
  GI50: > 100 µM (inactive)
DU-145
  GI50: > 100 µM (inactive)
EKVX
  GI50: > 100 µM (inactive)
HCT-116
  GI50: > 100 µM (inactive)
HL-60
  GI50: > 100 µM (inactive)
HOP-62
  GI50: > 100 µM (inactive)
HT-29
  GI50: > 100 µM (inactive)
Hs-578T
  GI50: > 100 µM (inactive)
IGROV-1
  GI50: 0.017 µM (active)
K562
  GI50: > 100 µM (inactive)
KM12
  GI50: > 100 µM (inactive)
LOX IMVI
  GI50: > 100 µM (inactive)
M14
  GI50: > 100 µM (inactive)
MCF7
  GI50: > 100 µM (inactive)
MDA-MB-231
  GI50: > 100 µM (inactive)
MDA-MB-435
  GI50: > 100 µM (inactive)
MDA-N
  GI50: > 100 µM (inactive)
MOLT-4
  GI50: > 100 µM (inactive)
NCI-H226
  GI50: > 100 µM (inactive)
NCI-H460
  GI50: > 100 µM (inactive)
NCI-H522
  GI50: > 100 µM (inactive)
NCI/ADR-RES
  GI50: > 100 µM (inactive)
OVCAR-3
  GI50: > 100 µM (inactive)
OVCAR-5
  GI50: > 100 µM (inactive)
OVCAR-8
  GI50: > 100 µM (inactive)
PC-3
  GI50: > 100 µM (inactive)
RPMI-8226
  GI50: > 100 µM (inactive)
SF-268
  GI50: > 100 µM (inactive)
SF-295
  GI50: > 100 µM (inactive)
SF-539
  GI50: > 100 µM (inactive)
SK-MEL-28
  GI50: > 100 µM (inactive)
SK-MEL-2
  GI50: > 100 µM (inactive)
SK-MEL-5
  GI50: > 100 µM (inactive)
SK-OV-3
  GI50: > 100 µM (inactive)
SN12C
  GI50: > 100 µM (inactive)
SNB-19
  GI50: > 100 µM (inactive)
SNB-75
  GI50: > 100 µM (inactive)
SR
  GI50: > 100 µM (inactive)
SW-620
  GI50: > 100 µM (inactive)
T47D
  GI50: > 100 µM (inactive)
TK-10
  GI50: > 100 µM (inactive)
U-251
  GI50: > 100 µM (inactive)
UACC-257
  GI50: > 100 µM (inactive)
UO-31
  GI50: > 100 µM (inactive)
